US11401243B2, “Quinoline derived small molecule inhibitors of nicotinamide N-methyltransferase (NNMT) and uses thereof” (priority 2017, dated 2022)
Values joined by “and” are separate entries in the source; they are usually repeats but may differ in a detail not shown here. Equal values may be shown once. “Also recorded” adds a separate entry of the source.

Tests used:
[1] = molecular target: T1, recombinant human COMT enzyme (Homo sapiens, UniProt P21964); assay: COMT activity assay (radiometric); type: biochemical; details: maximal tested concentration 600 μM
T1 construct: Reaction Biology Corporation (ran the assay)
T1 sequence (P21964 1-271): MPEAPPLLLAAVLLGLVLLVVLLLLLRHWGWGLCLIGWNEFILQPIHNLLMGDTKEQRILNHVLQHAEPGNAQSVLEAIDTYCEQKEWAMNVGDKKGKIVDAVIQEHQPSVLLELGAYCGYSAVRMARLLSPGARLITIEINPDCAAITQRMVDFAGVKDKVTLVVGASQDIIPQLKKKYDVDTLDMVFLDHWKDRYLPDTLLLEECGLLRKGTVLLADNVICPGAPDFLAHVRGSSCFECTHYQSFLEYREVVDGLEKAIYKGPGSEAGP

[2] = molecular target: T2, human NNMT (mt-hNNMT) (Homo sapiens, UniProt P40261, E101A/E103A/K100A); assay: NNMT activity assay (HPLC-UV detection of MNA), NNMT IC50 curves; details: NNMT IC50
T2 sequence (P40261 1-261 K100A/E101A/E103A limits assumed): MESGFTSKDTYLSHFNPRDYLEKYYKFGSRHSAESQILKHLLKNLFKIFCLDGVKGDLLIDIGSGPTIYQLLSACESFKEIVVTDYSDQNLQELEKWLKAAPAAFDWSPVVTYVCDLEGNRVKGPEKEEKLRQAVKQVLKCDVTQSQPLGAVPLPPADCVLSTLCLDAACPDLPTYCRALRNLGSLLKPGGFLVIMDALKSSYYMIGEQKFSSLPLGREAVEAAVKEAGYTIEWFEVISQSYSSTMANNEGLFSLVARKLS

[3] = molecular target: recombinant human PRMT3 enzyme (Homo sapiens, UniProt O60678); assay: PRMT3 activity assay (radiometric); type: biochemical; details: 10 nM to 200 μM (1,8-diMQ) or 600 μM (5-amino-1MQ)
Chain of recombinant human PRMT3 enzyme (O60678 whole entry): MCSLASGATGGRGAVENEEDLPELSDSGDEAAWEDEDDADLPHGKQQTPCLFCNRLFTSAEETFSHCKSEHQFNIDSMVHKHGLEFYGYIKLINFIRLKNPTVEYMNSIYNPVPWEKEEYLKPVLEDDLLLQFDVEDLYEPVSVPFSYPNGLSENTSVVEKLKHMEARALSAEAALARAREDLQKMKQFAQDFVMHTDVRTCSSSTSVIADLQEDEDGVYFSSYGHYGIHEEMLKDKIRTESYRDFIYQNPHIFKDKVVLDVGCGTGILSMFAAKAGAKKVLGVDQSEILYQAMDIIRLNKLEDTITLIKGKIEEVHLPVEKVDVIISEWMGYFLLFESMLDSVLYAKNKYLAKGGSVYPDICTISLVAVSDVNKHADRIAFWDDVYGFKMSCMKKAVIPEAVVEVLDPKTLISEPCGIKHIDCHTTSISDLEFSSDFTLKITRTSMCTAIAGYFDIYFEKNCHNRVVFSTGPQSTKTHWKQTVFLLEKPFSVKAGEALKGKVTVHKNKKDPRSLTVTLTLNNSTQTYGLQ
Source text: Test compounds were screened in biochemical assays for activity against three structurally similar methyltransferases, including catechol-O-methyltransferase (COMT), DNA (cytosine-5)-methyltransferase 1 (DNMT1), and protein arginine methyltransferase 3 (PRMT3). Additional biochemical assays were used to test the ability of compounds to inhibit nicotinamide phosphoribosyl transferase (NAMPT) and NAD+-dependent protein deacetylase sirtuin 1 (SIRT1), two enzymes in the NAD+ biosynthesis/salvage pathway. All assays were performed by Reaction Biology Corporation (RBC; Malvern, Pa., USA) and complete assay details are noted below. For each test compound, IC50 values were calculated from dose-response curves established with 10 concentrations of a half-log dilution series. For each assay, established enzyme specific inhibitors were included as positive controls for enzyme function and assay reproducibility. IC50 values were determined by non-linear least-squares fitting of a 4-parameter dose-response curve to collected data points (Graphpad Prism 7.0; La Jolla, Calif., USA).
PRMT3 activity assay. […] The analogues, 1,8-diMQ and 5-amino-1MQ were tested at concentrations from 200 μM-10 nM and 600 μM-10 nM, respectively. Reactions were performed with 5 μM histone H3 (histone L-arginine) substrate, 1 μM radiolabeled S-adenosyl-L-[methyl-3H]methionine (SAM) co-substrate, and recombinant human PRMT3 enzyme. Activity was monitored via quantification of radiolabeled reaction product histone [methyl-3H]-L-arginine.

[4] = test system: diet-induced obese (DIO) mice; type: in vivo
Protocol: 17-week old, male DIO C57Bl/6 mice that have been fed high-fat diet (HFD) for 11 weeks (starting at week 6) were purchased from Jackson Labs (Jackson Laboratory; Bar Harbour, Me., USA). Mice were initially group housed (three/cage) and allowed to acclimate to the colony environment maintained at a constant temperature (21-23° C.) and humidity (40-50%) on a 12-hour light-dark cycle (lights on 0600-1800 h). Upon arrival, mice were continued to be fed HFD (Open Source Diets formula D12451 from Research Diets Inc.; New Brunswick, N.J., USA), containing 45% energy from fat. Water was available ad libitum.
All experiments were carried out in accordance with the Guide for the Care and Use of Laboratory Animals and with approval from the Institutional Animal Care and Use Committee at the University of Texas Medical Branch. Following acclimation for seven days, mice were single-housed and maintained on HFD for 4 additional weeks. Mice were intermittently handled, with body weights and food intake (hopper weights) measured 2-3 times per week. […] Mice in the vehicle cohort received three subcutaneous (SC) saline (1 ml/kg) injections/day (˜0930, 1330, 1730 h) and mice in the treatment cohort received three SC injections of the NNMT inhibitor 5-amino-1MQ at a dose of 20 mg/kg/injection for a total dose of […] of the parent compound (calculated according to free weight) for 11 days. […] Body weight and food intake were measured every other day. On day 12, mice were subjected to a 4 h fast period, then deeply anesthetized using isoflurane and trunk blood was collected by decapitation. Plasma was separated from every sample and the samples were submitted to Texas A&M Veterinary Medical Diagnostic Laboratory (TVMDL; College Station, Tex., USA) for plasma lipid-panel measurements (total cholesterol and triglycerides). Triglycerides values were not included for analysis since the measurements were confounded by sample hemolysis that interfered with the triglyceride reagent in the assay. Epididymal fat pads (epididymal white adipose tissue; EWAT) were excised from every mouse, weighed, and fixed in 10% buffered formalin for further processing.
Formalin-fixed EWAT samples were paraffin embedded, sectioned ([…]), and stained with hematoxylin and eosin (H&E). Images were obtained at 20× magnification using a light microscope (Leica DM LB) and digitally photographed for automated image analysis. Images were analyzed using the “Adiposoft” plug-in software in ImageJ (NIH). […]. Minimum and maximum diameter parameters were assigned to identify appropriate cells for the automated adipocyte area calculations, and cells along the boundary of the images were excluded from analyses. Three to five images/sample were analyzed, with automated analysis confirmed by visual inspection. Images corresponding to each sample were averaged to obtain the mean adipocyte area (μm2) per sample and combined to calculate group mean values for control (vehicle-treated EWAT samples) and treatment (NNMT inhibitor-treated EWAT samples) cohorts.

[5] = test system: differentiated adipocytes (3T3 cells); assay: Quantitative measurement of selected metabolites (NA, SAM, SAH, NAD+) in cultured cells; type: cell-based
Protocol: Sample processing was performed as described above.

[6] = Bi-directional permeability assay with Caco-2 cells; details: human
[7] = test system: Caco-2 cells; assay: as above; details: Caco-2; listed as 5-amino-1MQ
[8] = DIO mice, 20 mg/kg SC t.i.d., 11 days

SMILES: C[n+]1cccc2c(N)cccc21 [1j, 5-amino-1-methylquinolin-1-ium iodide]
- inhibition at 600 µM [1]: 10%
- IC50 [2]: 1200 nM and ~1000 nM
- inhibition of PRMT3 (in words) [3]: did not inhibit
- decrease in mass of EWAT compared with control DIO mice [4, 8]: ~35%
- total cumulative food intake [4, 8]: 26.2 ± 1.4 g
- weight loss at end of treatment [4, 8]: 2.0 ± 0.6 g
- weight loss from baseline measures [4, 8]: ~5.1%
- body weight over treatment period compared to controls (in words) ([4]; DIO mice, 20 mg/kg SC three times daily, 11 days): progressive loss of body weight
- decrease in adipocyte size compared to control DIO mice ([4]; EWAT histology, 20 mg/kg SC t.i.d., 11 days): > 30%
- decrease in adipocyte volume compared to control DIO mice ([4]; EWAT histology, data not shown): > 40%
- tolerability in dose escalation study ([4]; mouse, in vivo, 60 mg/kg/day): well tolerated with no observable adverse effects
- total cholesterol levels lower relative to control DIO mice ([4]; plasma, 4 h fast, day 12): ~30%
- NAD+ levels vs. control ([5]; 10 μM): significant increase
- intracellular SAM levels relative to control adipocytes ([5]; 30 μM): significant increase
- increase in NAD+ levels relative to control adipocytes ([5]; 1-60 μM): 1.2-1.6 fold
- intracellular levels of NA ([5]; one-way ANOVA): no statistically significant main effect
- intracellular levels of SAH ([5]; one-way ANOVA): no statistically significant main effect
- efflux ratio at 2 h, 10 μM ([6]; Caco-2): 1.33
- Papp A→B at 2 h, 10 μM ([6]; Caco-2, pH 7.4): 34.2 ×10⁻⁶ cm/s
- Papp B→A at 2 h, 10 μM ([6]; Caco-2, pH 7.4): 45.2 ×10⁻⁶ cm/s
- Classification (active transport / efflux) [7]: no detectable efflux; also recorded: High permeability
